Like-named read-outs stand apart in the source and are kept apart here. Each block holds one compound with its values, some of them ahead of it.
How the values were obtained:
[1] = Method: Cohort 1 received 50 mg of each dipeptide in 300 mL water. Cohort 2 received 100 mL Peptamen first, then 50 mg of each dipeptide in 150 mL water, followed by another 50 mL water. All drinks were taken within a minute. Cohort 3 received 100 mL Peptamen first, then a reduced dose of 5 mg of each dipeptide in 150 mL water, followed by another 50 mL water. All drinks were taken within a minute. Blood samples were collected after 15 min, 30 min, 45 min, 1 h, 2 h, 3 h, 4 h, 6 h, 8 h, 10 h, 14 h, 48 h and 72 h after dosing. Urine was collected and pooled at 0-4 h, 4-6 h, and 6-10 h, and was collected as spot urine at 48 h and 72 h after dosing.
Plasma samples were thawed on ice, mixed, and 100 µL of each sample was transferred to a 1.5 mL LoBind reaction tube. Plasma samples were precipitated after adding 200 µL of acetonitrile/methanol (10:1), and incubated on ice for 15 min. Samples were centrifuged at 16,000 g for 15 min at 4 °C. 100 µL supernatant was dried under nitrogen at 40 °C. Samples were reconstituted in 100 µL 0.1% formic acid and 5 µL was applied to the LC-MS/MS instrument.
Labelled XP dipeptides and single amino acids (P*, L*, F*) in plasma samples were quantified by LC-MS/MS using Nexera LC40 HPLC system (Shimadzu, Duisburg, Germany) coupled to an API 6500+ ™ tandem mass spectrometer (AB Sciex, Darmstadt, Germany). For chromatographic separation an ACQUITY UPLC HSS PFP Column (100 Å, 1.8 µm, 2.1 mm X 150 mm; Waters, Eschborn, Germany) protected by a SecurityGuard C18 column (4x2 mm; Phenomenex, Aschaffenburg, Germany) was used. Chromatographic separation was performed at an oven temperature of 40°C and the solvent flow rate was set to 400 µL/min. Elution was achieved by varying composition of solvent A (90% acetonitrile + methanol (6 + 1), 0.1% formic acid in H2O) and solvent B (0.1% formic acid in H2O) using following LC conditions: 0-1.4 min 0% solvent A; 1.4-10.4 min 0-50% solvent A; 10.5-12.9 min 80% solvent A; 13-15 min 0% solvent A. To decrease the introduction of debris into the MS, a valve was directed to waste at 0.1-1 min and 9.5-14.9 min.
MS detection of labelled amino acids and XP dipeptides was performed in positive mode with curtain gas set to 40, gas 1 of 50, gas 2 of 70, temperature of 500°C and an IS of 3500. Detection was achieved using MS parameters and mass transitions listed in Supplementary Table 3 .
LC-MS/MS-generated chromatograms were analyzed using Analyst 1.7.2 (Sciex, Darmstadt, Germany). The pharmacokinetics parameter AUC was calculated using GraphPad Prism version 8.0 (GraphPad Prism Software Inc., La Jolla, CA, USA). Partial AUCs were calculated manually using the trapezoidal rule.
Statistical analyses were performed using SPSS Statistics Version 28 (SPSS Inc., IBM, Chicago, IL, USA). To compare the effects between cohorts in the dipeptide resorption study the one-tailed Mann-Whitney-Test was applied. To compare the effects between enzyme supplementation and controls during the proof-of-concept study the one tailed Wilcoxon matched-pairs signed rank test was applied.

[2] = plasma of healthy volunteers after oral administration of SI-labelled XP dipeptides (with water or Peptamen); conditions: human (healthy volunteers), up to 72 h
[3] = system: AMYNOPEP (dipeptidyl peptidase and aminopeptidase, 1:10 enzyme ratio); experiment: Tris buffer at pH 7.0 using an enzyme mixture consisting of 0.86 mg/L dipeptidyl peptidase and 8.6 mg/L aminopeptidase; conditions: 37°C, up to 60 minutes
[4] = system: gastric, pancreatic, and intestinal peptidases; experiment: human gastric, pancreatic, and intestinal peptidases; conditions: cited from earlier work
[5] = system: AMYNOPEP (dipeptidyl peptidase : aminopeptidase, 1:1 ratio); experiment: in vitro with AMYNOPEP at an enzyme ratio of 1:1

Compound: N[C@@H](Cc1ccccc1)C(=O)O [F*, phenylalanine]
reduction in plasma AUC of labelled amino acid on dose reduction from 50 mg to 5 mg of each XP ([1]; oral XP dipeptides taken with 100 mL Peptamen, n=3 healthy volunteers per cohort, LC-MS/MS): 9.5 fold | SI-labelled amino acid detection in plasma after oral XP dipeptides ([1]; oral, 50 mg each of F*P*, LP*, L*P* in water, n=3 healthy volunteers, HPLC-MS/MS): detectable | decrease in plasma AUC of labelled amino acid with Peptamen relative to water ([1]; oral, 50 mg of each XP dipeptide with 100 mL Peptamen vs water, n=3 healthy volunteers per cohort, LC-MS/MS): 2.1 fold

Compound: CC(C)C[C@H](N)C(=O)O [L*, leucine]
reduction in plasma AUC of labelled amino acid on dose reduction from 50 mg to 5 mg of each XP ([1]; human, in vivo, po): 13.2 fold

Compound: O=C(O)[C@@H]1CCCN1 [P*, proline]
reduction in plasma AUC of labelled amino acid on dose reduction from 50 mg to 5 mg of each XP ([1]; human, in vivo, po): 11.5 fold

Now from value to compound, other results behind:

cleaved bond [2]: F*-P*
Compound: F*P*

cleaved bond [2]: L*-P*
Compound: L*P*

cleaved bond [5]: P-F
Compound: LQLQPFPQPQLPYPQPQLPYPQPQLPYPQPQPF
cleaved bond [3]: L-Q, 5 min and P-Q and Q-L and P-Y and P-F, within 30 minutes and Q-L, 5 min and P-F, 5 min and P-Q, 5 min | not cleaved [4]: thought to be stable to proteolytic digestion

Reference: publication PMC11522800 (Frontiers in Immunology, 2024)
